# Assay: Apparent permeability in dog MDCK2 cells incubated for 3 hrs
# Assay type: ADME, cell-based, Canis lupus familiaris
# Details: mdck-ii
row,Papp [×10⁻⁶ cm/s],Structure (SMILES)
1,2.9,CC[C@H](C)[C@@H]1NC(=O)CCCNc2cccc(c2)CNC(=O)[C@@H]2CCCN2C(=O)[C@H](Cc2ccc(F)cc2)NC(=O)[C@H](CC2CCCCC2)NC1=O
2,4,CC(C)C[C@H]1NC(=O)[C@@H](C(C)C)NC(=O)CNc2cccc(c2)CCNC(=O)[C@@H]2CCCN2C(=O)[C@H](Cc2ccc(F)cc2)NC1=O
3,3.9,CC[C@H](C)[C@@H]1NC(=O)CNc2cccc(c2)CNC(=O)[C@@H]2CCCN2C(=O)[C@H](Cc2ccc(F)cc2)NC(=O)[C@H](CC2CCCCC2)NC1=O
4,5.5,CC(C)C[C@H]1NC(=O)[C@@H](C(C)C)NC(=O)CNc2ccccc2CCNC(=O)[C@@H]2CCCN2C(=O)[C@H](Cc2ccc(F)cc2)NC1=O
5,7.6,CC[C@H](C)[C@@H]1NC(=O)CNc2cccc(c2)CCNC(=O)[C@@H]2CCCN2C(=O)[C@@H](Cc2ccccc2)NC(=O)[C@@H](CC(C)C)NC1=O
6,14.5,CC[C@H](C)[C@@H]1NC(=O)CNc2ccccc2CCNC(=O)[C@@H]2CCCN2C(=O)[C@@H](Cc2ccccc2)NC(=O)[C@@H](CC(C)C)NC1=O
7,12.9,CC[C@H](C)[C@@H]1NC(=O)CNc2ccccc2CCNC(=O)[C@@H]2CCCN2C(=O)[C@H](Cc2ccc(F)cc2)NC(=O)[C@@H](CC(C)C)NC1=O
8,5.7,CC[C@H](C)[C@@H]1NC(=O)CNc2cccc(c2)CCNC(=O)[C@@H]2CCCN2C(=O)[C@H](Cc2ccc(F)cc2)NC(=O)[C@@H](CC(C)C)NC1=O

# From ChEMBL document CHEMBL4396902, “Development of a Platform To Enable Efficient Permeability Evaluation of Novel Organo-Peptide Macrocycles” (ACS Med Chem Lett, 2019)
